Results published in PubChem BioAssay (NCI).
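Where inhibition never reached the appropriate level, the endpoint shown equals the highest concentration tested. Otherwise, values were interpolated linearly from a five-concentration, 48-hour dose response in 96-well plates. Abbreviation: GI50, concentration required for 50% inhibition of growth. Definition used: TGI = concentration required for complete inhibition of growth.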 Where a SMILES comes first, the peptide text is derived from it. [ ]: non-standard residue; d: D form. Phe(ol) = N[C@H](CO)Cc1ccccc1; dIva = CC[C@@](C)(N)C(=O)O; Aib = CC(C)(N)C(=O)O

Key:
Assay in all cases: NCI-60 cell line screen, 48 h
SK-OV-3 ovarian = test system: SK-OV-3 ovarian
HOP-92 NSCLC = test system: HOP-92 NSCLC
MALME-3M melanoma = test system: MALME-3M melanoma
EKVX NSCLC = test system: EKVX NSCLC
COLO 205 colon = test system: COLO 205 colon
UACC-62 melanoma = test system: UACC-62 melanoma
HCT-116 colon = test system: HCT-116 colon
UACC-257 melanoma = test system: UACC-257 melanoma
PC-3 prostate = test system: PC-3 prostate
SK-MEL-5 melanoma = test system: SK-MEL-5 melanoma
SK-MEL-28 melanoma = test system: SK-MEL-28 melanoma
RPMI-8226 leukemia = test system: RPMI-8226 leukemia
NCI-H522 lung = test system: NCI-H522 lung
786-0 renal = test system: 786-0 renal
SW-620 colon = test system: SW-620 colon
IGROV1 ovarian = test system: IGROV1 ovarian
HL-60(TB) leukemia = test system: HL-60(TB) leukemia
HCT-15 colon = test system: HCT-15 colon
SF-295 CNS = test system: SF-295 CNS
UO-31 renal = test system: UO-31 renal
OVCAR-3 ovarian = test system: OVCAR-3 ovarian
OVCAR-4 ovarian = test system: OVCAR-4 ovarian
A498 renal = test system: A498 renal
SNB-75 CNS = test system: SNB-75 CNS
KM12 colon = test system: KM12 colon
RXF 393 renal = test system: RXF 393 renal
ACHN renal = test system: ACHN renal
HOP-62 NSCLC = test system: HOP-62 NSCLC
TK-10 renal = test system: TK-10 renal
M14 melanoma = test system: M14 melanoma
BT-549 breast = test system: BT-549 breast
NCI-H460 lung = test system: NCI-H460 lung
SK-MEL-2 melanoma = test system: SK-MEL-2 melanoma
LOX IMVI melanoma = test system: LOX IMVI melanoma
NCI/ADR-RES ovarian = test system: NCI/ADR-RES ovarian
K-562 leukemia = test system: K-562 leukemia
A549 NSCLC = test system: A549 NSCLC
NCI-H23 lung = test system: NCI-H23 lung
MCF7 breast = test system: MCF7 breast
T-47D breast = test system: T-47D breast
CCRF-CEM leukemia = test system: CCRF-CEM leukemia
U251 CNS = test system: U251 CNS
SF-268 CNS = test system: SF-268 CNS
SR leukemia = test system: SR leukemia
MOLT-4 leukemia = test system: MOLT-4 leukemia
HT29 colon = test system: HT29 colon
SF-539 CNS = test system: SF-539 CNS
OVCAR-8 ovarian = test system: OVCAR-8 ovarian
MDA-MB-435 = test system: MDA-MB-435
HS 578T breast = test system: HS 578T breast
OVCAR-5 ovarian = test system: OVCAR-5 ovarian
SN12C renal = test system: SN12C renal
NCI-H226 lung = test system: NCI-H226 lung
MDA-MB-231 breast = test system: MDA-MB-231 breast
HCC-2998 colon = test system: HCC-2998 colon
SNB-19 CNS = test system: SNB-19 CNS

CC[C@@](C)(NC(=O)C(C)(C)NC(=O)[C@@H](NC(=O)[C@@H]1CCCN1C(=O)C(C)(C)NC(=O)[C@H](CC(C)C)NC(=O)CNC(=O)C(C)(C)NC(=O)[C@@H](NC(=O)C(C)(C)NC(=O)[C@H](CCC(N)=O)NC(=O)[C@H](C)NC(=O)C(C)(C)NC(=O)[C@H](C)NC(=O)C(C)(C)NC(=O)[C@@H]1CCCN1C(=O)C(C)(C)NC(C)=O)C(C)C)C(C)C)C(=O)N[C@@H](CCC(N)=O)C(=O)N[C@@H](CCC(N)=O)C(=O)N[C@H](CO)Cc1ccccc1 (Ac-[Aib]P[Aib]A[Aib]AQ[Aib]V[Aib]GL[Aib]PV[Aib][dIva]QQ[Phe(ol)])
GI50 (SK-OV-3 ovarian): 1550 nM | TGI (SK-OV-3 ovarian): > 4250 nM | GI50 (HOP-92 NSCLC): 1060 nM | TGI (HOP-92 NSCLC): 2950 nM | GI50 (MALME-3M melanoma): 856 nM | TGI (MALME-3M melanoma): 2140 nM | GI50 (EKVX NSCLC): > 4250 nM | TGI (EKVX NSCLC): > 4250 nM | GI50 (COLO 205 colon): 1290 nM | TGI (COLO 205 colon): > 4250 nM | GI50 (UACC-62 melanoma): 1730 nM | TGI (UACC-62 melanoma): > 4250 nM | GI50 (HCT-116 colon): 1750 nM | TGI (HCT-116 colon): > 4250 nM | GI50 (UACC-257 melanoma): 1210 nM | TGI (UACC-257 melanoma): > 4250 nM | GI50 (PC-3 prostate): 1660 nM | TGI (PC-3 prostate): > 4250 nM | GI50 (SK-MEL-5 melanoma): 1170 nM | TGI (SK-MEL-5 melanoma): 3620 nM | GI50 (SK-MEL-28 melanoma): 1660 nM | TGI (SK-MEL-28 melanoma): > 4250 nM | GI50 (RPMI-8226 leukemia): 265 nM | TGI (RPMI-8226 leukemia): 2410 nM | GI50 (NCI-H522 lung): 873 nM | TGI (NCI-H522 lung): 4030 nM | GI50 (786-0 renal): > 4250 nM | TGI (786-0 renal): > 4250 nM | GI50 (SW-620 colon): 3340 nM | TGI (SW-620 colon): > 4250 nM | GI50 (IGROV1 ovarian): 2510 nM | TGI (IGROV1 ovarian): > 4250 nM | GI50 (HL-60(TB) leukemia): 960 nM | TGI (HL-60(TB) leukemia): 2080 nM | GI50 (HCT-15 colon): > 4250 nM | TGI (HCT-15 colon): > 4250 nM | GI50 (SF-295 CNS): > 4250 nM | TGI (SF-295 CNS): > 4250 nM | GI50 (UO-31 renal): > 4250 nM | TGI (UO-31 renal): > 4250 nM | GI50 (OVCAR-3 ovarian): 1140 nM | TGI (OVCAR-3 ovarian): > 4250 nM | GI50 (OVCAR-4 ovarian): 1570 nM | TGI (OVCAR-4 ovarian): > 4250 nM | GI50 (A498 renal): > 4250 nM | TGI (A498 renal): > 4250 nM | GI50 (SNB-75 CNS): 1150 nM | TGI (SNB-75 CNS): > 4250 nM | GI50 (KM12 colon): 1470 nM | TGI (KM12 colon): > 4250 nM | GI50 (RXF 393 renal): 964 nM | TGI (RXF 393 renal): 3110 nM | GI50 (ACHN renal): > 4250 nM | TGI (ACHN renal): > 4250 nM | GI50 (HOP-62 NSCLC): > 4250 nM | TGI (HOP-62 NSCLC): > 4250 nM | GI50 (TK-10 renal): > 4250 nM | TGI (TK-10 renal): > 4250 nM | GI50 (M14 melanoma): > 4250 nM | TGI (M14 melanoma): > 4250 nM | GI50 (BT-549 breast): 966 nM | TGI (BT-549 breast): 2670 nM | GI50 (NCI-H460 lung): 1520 nM | TGI (NCI-H460 lung): > 4250 nM | GI50 (SK-MEL-2 melanoma): 1370 nM | TGI (SK-MEL-2 melanoma): > 4250 nM | GI50 (LOX IMVI melanoma): 1360 nM | TGI (LOX IMVI melanoma): > 4250 nM | GI50 (NCI/ADR-RES ovarian): > 4250 nM | TGI (NCI/ADR-RES ovarian): > 4250 nM | GI50 (K-562 leukemia): 2400 nM | TGI (K-562 leukemia): > 4250 nM | GI50 (A549 NSCLC): 2390 nM | TGI (A549 NSCLC): > 4250 nM | GI50 (NCI-H23 lung): 1000 nM | TGI (NCI-H23 lung): > 4250 nM | GI50 (MCF7 breast): 215 nM | TGI (MCF7 breast): > 4250 nM | GI50 (T-47D breast): 974 nM | TGI (T-47D breast): 4020 nM | GI50 (CCRF-CEM leukemia): 2930 nM | TGI (CCRF-CEM leukemia): > 4250 nM | GI50 (U251 CNS): 1610 nM | TGI (U251 CNS): > 4250 nM | GI50 (SF-268 CNS): 1630 nM | TGI (SF-268 CNS): > 4250 nM | GI50 (SR leukemia): 1410 nM | TGI (SR leukemia): > 4250 nM | GI50 (MOLT-4 leukemia): 1470 nM | TGI (MOLT-4 leukemia): > 4250 nM | GI50 (HT29 colon): 1720 nM | TGI (HT29 colon): > 4250 nM | GI50 (SF-539 CNS): 1530 nM | TGI (SF-539 CNS): > 4250 nM | GI50 (OVCAR-8 ovarian): > 4250 nM | TGI (OVCAR-8 ovarian): > 4250 nM | GI50 (MDA-MB-435): 1160 nM | TGI (MDA-MB-435): > 4250 nM | GI50 (HS 578T breast): 2480 nM | TGI (HS 578T breast): > 4250 nM | GI50 (OVCAR-5 ovarian): 1640 nM | TGI (OVCAR-5 ovarian): > 4250 nM | GI50 (SN12C renal): 789 nM | TGI (SN12C renal): > 4250 nM | GI50 (NCI-H226 lung): > 4250 nM | TGI (NCI-H226 lung): > 4250 nM | GI50 (MDA-MB-231 breast): 1430 nM | TGI (MDA-MB-231 breast): > 4250 nM | GI50 (HCC-2998 colon): 1960 nM | TGI (HCC-2998 colon): > 4250 nM | GI50 (SNB-19 CNS): 1270 nM | TGI (SNB-19 CNS): > 4250 nM
